The record followed here is patent US8586555B2, “Immunomodulatory compositions, formulations, and methods for use thereof” (Dynavax Technologies Corporation, priority 2001, dated 2013).

Test [1] concerns human peripheral blood mononuclear cells (hPBMC). Nature of the test: human PBMC assay, Example 3 (oligo and PLGA added at the same time, 48 well plates). The format is cell-based. The note with it: for IFN-α / IFN-γ: oligo 20 μg/ml, PLGA 250 μg/ml, 24 hours; for IFN-α Mean / IFN-γ Mean: mean of donors 28033, 28034. On the procedure:
(§1) Hexameric oligonucleotides were tested for immunomodulatory activity alone and complexed with lactic acid/glycolic acid copolymer microcarrier beads using a human peripheral blood mononuclear cells (hPBMC) assay. Peripheral blood was collected from healthy volunteers by venipuncture using heparinized syringes. Blood was layered onto a FICOLL® (Amersham Pharmacia Biotech) cushion and centrifuged. hPBMCs, located at the FICOLL® interface, were collected, then washed twice with cold phosphate buffered saline (PBS). The cells were resuspended and cultured in 48 well plates at 2×10^6 cells/mL at 37° C. in RPMI 1640 with 10% heat-inactivated human AB serum plus 50 units/mL penicillin, 50 μg/mL streptomycin, 300 μg/mL glutamine, 1 mM sodium pyruvate, and 1×MEM non-essential amino acids (NEAA).
(§2) Oligonucleotides were tested as single agents, or in combination with PLGA microspheres (unmodified or cationic). All oligonucleotides contained 100% phosphorothioate linkages and were tested at 20 μg/ml. The PLGA microcarriers were used at 250 μg/ml. When oligos were tested with PLGA microcarriers, the oligo and the microcarriers were added at the same time to the culture. The cells were cultured in the in the presence of test samples for 24 hours, then cell-free medium was collected from each well and assayed for IFN-γ and IFN-α concentration. Two different oligonucleotides were used as controls: a first oligonucleotide known to have immunostimulatory activity (a 22mer oligonucleotide containing an ISS (“ISS+,” 5′-[…]-3′(SEQ ID NO:2)) and a second oligonucleotide of similar sequence but lacking immunostimulatory activity (“ISS−,” 5′-[…]-3′ (SEQ ID NO:1)). SAC (PANSORBIN® CalBiochem, 1/5000 dilution) and a untreated culture were used as additional positive and negative controls, respectively. SAC contains Staph. aureus (Cowan I) cell material. All samples were assayed in duplicate.
(§3) IFN-γ and IFN-α were assayed using CYTOSCREEN™ ELISA kits from BioSource International, Inc., according to the manufacturer's instructions.

For test [2] the test system is unchanged. Nature of the test: human PBMC assay, Example 5 (96 well plates, premixed). Type of test: cell-based. The note with it: for IFN-α Mean / IFN-γ Mean: mean of donors 28051-28054. Here is the method:
as §1, §2, §3
The immunomodulatory activity of the oligonucleotides used in Examples 3 and 4 was confirmed with the human PBMC assay using PBMCs from an additional four donors (donors 28051-28054). Oligonucleotides were tested alone or in combination with cationic PLGA as described in Example 3, except that 96 well plates were used instead of 48 well plates and the oligonucleotides were premixed with the cationic microspheres at room temperature for 15 minutes before they were added to the culture, rather than being added simultaneously to the culture.

Setting [3] is: in combination with cationic PLGA.
[4] abbreviates: delivered as IMO/MC complexes (cPLGA).

With 5′-ATCGAT-3′ [Oligonucleotide 6-7], the IFN-α amounted to 8 pg/mL in test [1] (donor 28033); 22 pg/mL in test [1] (donor 28034); 1 pg/mL in test [2] (donor 28051); 0 pg/mL in test [2] (donor 28052); 4 pg/mL in test [2] (donor 28053); 1 pg/mL in test [2] (donor 28054). Further, the IFN-γ was 0 pg/mL in test [1] (donor 28033); 3 pg/mL in test [1] (donor 28034); 1 pg/mL in test [2] (donor 28051); 1 pg/mL in test [2] (donor 28052); 2 pg/mL in test [2] (donor 28053); 2 pg/mL in test [2] (donor 28054). Besides, the “immunomodulatory activity” value is “active” in test [1] (setting [3]), “inactive” in test [2] (delivered alone) and “highly active” in test [2] (setting [4]). Also, the results for the “IFN-α Mean” value in test [1] and in test [2] were 15 pg/mL and 2 pg/mL, respectively. Further, the “IFN-γ Mean” value in test [1] amounted to 2 pg/mL; in test [2], 1 pg/mL.

On to 5′-AACGTT-3′ [Oligonucleotide 6-16], for which the IFN-α in test [1] (donor 28033) was found to be 3 pg/mL; in test [1] (donor 28034), 48 pg/mL; in test [2] (donor 28051), 2 pg/mL; in test [2] (donor 28052), 1 pg/mL; in test [2] (donor 28053), 1 pg/mL; in test [2] (donor 28054), 2 pg/mL. Further, the IFN-γ came to 0 pg/mL in test [1] (donor 28033); 3 pg/mL in test [1] (donor 28034); 1 pg/mL in test [2] (donor 28051); 2 pg/mL in test [2] (donor 28052); 2 pg/mL in test [2] (donor 28053); 8 pg/mL in test [2] (donor 28054). For the same substance, the “IFN-α induction” value in test [1] (setting [3]) is “induce IFN-α in one of the two donors”. Also, the entries for the “IFN-α Mean” value in test [1] and in test [2] were 26 pg/mL and 2 pg/mL, respectively. Further, the “IFN-γ Mean” value in test [1] stood at 2 pg/mL; in test [2] it was 3 pg/mL. The “immunomodulatory activity” value in test [2] (setting [4]) is “variable activity”.
